Results as given in patent US20240101544A1, “INHIBITORS OF QPCTL AND QPCT” (priority 2022, published 2024).

How the values were obtained:
QPCT (rhQPCT) = QPCT (rhQPCT) (Homo sapiens (Human), UniProt Q16769); assay: QPCT Enzymatic Activity Assay (coupled-enzyme fluorescent assay, H-Gln-AMC substrate); format: biochemical; details: rhQPCT 10-12 nM, 10 μM H-Gln-AMC; read-out: QPCT Inhibition IC50
Procedure, shortened: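 Coupled assay: recombinant human QPCT converts H-Gln-AMC (10 μM final) to pyroglutamyl-AMC, 60 min at 37 °C, stopped by boiling; PGPEP-1 then releases AMC.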

QPCTL [1] = target: T1, QPCTL (Homo sapiens (Human), UniProt Q9NXS2); assay: QPCTL Enzymatic Activity Assay (coupled-enzyme fluorescent assay, H-Gln-AMC substrate); format: biochemical; details: recombinant truncated human QPCTL 10-12 nM, 10 μM H-Gln-AMC; read-out: QPCTL Inhibition IC50
Target sequence in this assay (Q9NXS2 53-382): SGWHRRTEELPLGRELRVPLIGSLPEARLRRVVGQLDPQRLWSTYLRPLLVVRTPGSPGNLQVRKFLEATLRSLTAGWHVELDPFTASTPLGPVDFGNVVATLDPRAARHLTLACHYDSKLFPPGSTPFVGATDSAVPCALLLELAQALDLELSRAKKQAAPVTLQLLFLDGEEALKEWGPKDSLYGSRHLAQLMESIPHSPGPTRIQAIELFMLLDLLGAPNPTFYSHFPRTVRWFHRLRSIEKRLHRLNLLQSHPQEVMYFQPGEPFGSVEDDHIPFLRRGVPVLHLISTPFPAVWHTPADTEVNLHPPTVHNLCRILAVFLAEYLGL

QPCTL [2] = target: T1, QPCTL; assay: Inhibition of Cellular QPCTL Activity - Imaging Assay, CC2C6 anti-CD47 staining of DLD-1 cells; format: cell-based; details: 72 hours, CC2C6 anti-CD47 high-content imaging
Description: Inhibition of Cellular QPCTL Activity—Imaging Assay
The cells were incubated for 72 hours at 37° C. and 5% CO2. […] After primary antibody staining, the cells were fixed with 4% paraformaldehyde in the incubation buffer for 15 minutes at room temperature. […] Cells were analyzed on a ImageXpress Pico Automated Cell Imaging System (Molecular Devices) using 10× objective (3×3 fields).
Target sequence in this assay (Q9NXS2 whole entry, the tested form may be a part): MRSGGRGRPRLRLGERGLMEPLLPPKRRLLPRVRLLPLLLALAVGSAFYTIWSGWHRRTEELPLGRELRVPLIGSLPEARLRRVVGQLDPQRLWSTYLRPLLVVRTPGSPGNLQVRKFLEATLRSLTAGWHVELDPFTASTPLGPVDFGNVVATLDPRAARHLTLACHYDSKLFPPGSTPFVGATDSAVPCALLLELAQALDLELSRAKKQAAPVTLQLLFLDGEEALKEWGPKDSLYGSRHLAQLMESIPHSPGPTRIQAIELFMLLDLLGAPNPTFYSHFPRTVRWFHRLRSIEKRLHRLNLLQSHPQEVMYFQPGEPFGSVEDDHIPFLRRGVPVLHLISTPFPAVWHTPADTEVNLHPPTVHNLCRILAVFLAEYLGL

Chain of QPCT (rhQPCT) (Q16769 29-361): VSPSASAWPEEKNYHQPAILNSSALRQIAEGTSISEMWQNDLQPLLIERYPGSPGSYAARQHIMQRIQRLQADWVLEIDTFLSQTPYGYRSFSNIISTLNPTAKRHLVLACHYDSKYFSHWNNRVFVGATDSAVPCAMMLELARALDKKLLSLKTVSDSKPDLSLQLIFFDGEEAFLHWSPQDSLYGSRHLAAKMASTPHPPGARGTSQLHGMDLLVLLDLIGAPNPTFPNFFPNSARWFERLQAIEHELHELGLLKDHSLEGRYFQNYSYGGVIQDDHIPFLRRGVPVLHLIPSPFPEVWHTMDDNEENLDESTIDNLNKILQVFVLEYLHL

| Structure (SMILES) | IC50 (QPCT (rhQPCT)) [nM] | IC50 (QPCTL [1]) [nM] | IC50 (QPCTL [2]) [nM] |
| --- | --- | --- | --- |
| Cn1cnnc1C1CCN(c2c(-c3ccc(F)nc3)ccnc2C#N)CC1 [Example 132, 6-fluoro-3′-(4-(4-methyl-4H-1,2,4-triazol-3-yl)piperidin-1-yl)-[3,4′-bipyridine]-2′-carbonitrile] | < 100 | < 100 | < 100 |
| Cn1cnnc1C1CCN(c2c(C#N)cccc2-c2ccc(O)c(C=O)c2)CC1 [Example 109, 3′-formyl-4′-hydroxy-2-(4-(4-methyl-4H-1,2,4-triazol-3-yl)piperidin-1-yl)-[1,1′-biphenyl]-3-carbonitrile] | < 100 | < 100 | < 100 |
| Cc1cc(-c2ccc(OCCN(C)C)c(C#N)c2N2CCC(c3nncn3C)CC2)cnn1 [Example 62, 6-(2-(dimethylamino)ethoxy)-2-(4-(4-methyl-4H-1,2,4-triazol-3-yl)piperidin-1-yl)-3-(6-methylpyridazin-4-yl)benzonitrile] | 100 to 1000 | < 100 | > 10000 |
| CN(C)CCNc1ccc(-c2ccc(F)nc2)c(N2CCC(c3nncn3C)CC2)c1C#N [Example 51, 6-((2-(dimethylamino)ethyl)amino)-3-(6-fluoropyridin-3-yl)-2-(4-(4-methyl-4H-1,2,4-triazol-3-yl)piperidin-1-yl)benzonitrile] | < 100 | < 100 | 100 to 1000 |
| Cn1cnnc1C1CCN(c2c(C#N)cc(C(F)(F)F)cc2-c2ccc(F)nc2)CC1 [Example 70, 3-(6-fluoropyridin-3-yl)-2-(4-(4-methyl-4H-1,2,4-triazol-3-yl)piperidin-1-yl)-5-(trifluoromethyl)benzonitrile] | < 100 | < 100 | < 100 |
| Cc1ccc(-c2ccc(F)nc2)c(N2CCC(c3nncn3C)CC2)c1C#N [Example 67, 3-(6-fluoropyridin-3-yl)-6-methyl-2-(4-(4-methyl-4H-1,2,4-triazol-3-yl)piperidin-1-yl)benzonitrile] | < 100 | < 100 | < 100 |
| Cn1cnnc1C1CCN(c2c(C#N)cccc2-c2cncc(O)c2)CC1 [Example 120, 3-(5-hydroxypyridin-3-yl)-2-(4-(4-methyl-4H-1,2,4-triazol-3-yl)piperidin-1-yl)benzonitrile] | < 100 | < 100 | < 100 |
| Cn1cnnc1C1CCN(c2c(-c3ccc(F)nc3)ccc(N)c2C#N)CC1 [Example 78, 6-amino-3-(6-fluoropyridin-3-yl)-2-(4-(4-methyl-4H-1,2,4-triazol-3-yl)piperidin-1-yl)benzonitrile] | < 100 | < 100 | < 100 |
| Cn1ccc(-c2ccc(-c3ccc(F)nc3)c(N3CCN(c4nncn4C)CC3)c2C#N)n1 [Example 122, 3-(6-fluoropyridin-3-yl)-6-(1-methyl-1H-pyrazol-3-yl)-2-(4-(4-methyl-4H-1,2,4-triazol-3-yl)piperazin-1-yl)benzonitrile] | < 100 | < 100 | < 100 |
| Cn1cnnc1C1CCN(c2c(C#N)cccc2-c2ccc(F)cc2)CC1 [Example 96, 4′-fluoro-2-(4-(4-methyl-4H-1,2,4-triazol-3-yl)piperidin-1-yl)-[1,1′-biphenyl]-3-carbonitrile] | < 100 | < 100 | 1000 to 10000 |
| Cn1cnnc1N1CCN(c2c(C#N)cccc2-c2ccc(F)nc2)CC1 [Example 106, 3-(6-fluoropyridin-3-yl)-2-(4-(4-methyl-4H-1,2,4-triazol-3-yl)piperazin-1-yl)benzonitrile] | < 100 | < 100 | < 100 |
| Cn1cnnc1C1CCN(c2c(-c3ccc(F)nc3)ccc(OC3CC3)c2C#N)CC1 [Example 76, 6-cyclopropoxy-3-(6-fluoropyridin-3-yl)-2-(4-(4-methyl-4H-1,2,4-triazol-3-yl)piperidin-1-yl)benzonitrile] | < 100 | < 100 | < 100 |

The next lines start with the values.

| IC50 (QPCT (rhQPCT)) [nM] | IC50 (QPCTL [1]) [nM] | IC50 (QPCTL [2]) [nM] | Structure (SMILES) |
| --- | --- | --- | --- |
| < 100 | < 100 | < 100 | Cn1cnnc1C1CCN(c2c(-c3ccc(F)nc3)ccc(NC3CC3)c2C#N)CC1 [Example 81, 6-(cyclopropylamino)-3-(6-fluoropyridin-3-yl)-2-(4-(4-methyl-4H-1,2,4-triazol-3-yl)piperidin-1-yl)benzonitrile] |
| < 100 | < 100 | > 10000 | Cc1cc(-c2ccc(-c3cc[nH]n3)c(C#N)c2N2CCC(c3nncn3C)CC2)cnn1 [Example 65, 2-(4-(4-methyl-4H-1,2,4-triazol-3-yl)piperidin-1-yl)-3-(6-methylpyridazin-4-yl)-6-(1H-pyrazol-3-yl)benzonitrile] |
| < 100 | < 100 | < 100 | CN1CCC(Oc2ccc(-c3ccc(F)nc3)c(N3CCC(c4nncn4C)CC3)c2C#N)C1 (single isomer, unassigned) [Example 90, 3-(6-fluoropyridin-3-yl)-2-(4-(4-methyl-4H-1,2,4-triazol-3-yl)piperidin-1-yl)-6-((1-methylpyrrolidin-3-yl)oxy)benzonitrile] |
| < 100 | < 100 | 1000 to 10000 | Cn1cnnc1C1CCN(c2c(C#N)cccc2-c2ccc3c(c2)COB3O)CC1 [Example 123, 3-(1-hydroxy-1,3-dihydrobenzo[c][1,2]oxaborol-5-yl)-2-(4-(4-methyl-4H-1,2,4-triazol-3-yl)piperidin-1-yl)benzonitrile] |
| < 100 | < 100 | 100 to 1000 | Cn1ccc(-c2ccc(-c3ccc(O)c(C=O)c3)c(N3CCC(c4nncn4C)CC3)c2C#N)n1 [Example 124, 3′-formyl-4′-hydroxy-4-(1-methyl-1H-pyrazol-3-yl)-2-(4-(4-methyl-4H-1,2,4-triazol-3-yl)piperidin-1-yl)-[1,1′-biphenyl]-3-carbonitrile] |
| < 100 | < 100 | 100 to 1000 | Cn1cnnc1C1CCN(c2c(-c3ccc(F)nc3)ccc(-c3cnn(C4CCNCC4)c3)c2C#N)CC1 [Example 42, 3-(6-fluoropyridin-3-yl)-2-(4-(4-methyl-4H-1,2,4-triazol-3-yl)piperidin-1-yl)-6-(1-(piperidin-4-yl)-1H-pyrazol-4-yl)benzonitrile] |
| < 100 | < 100 | 100 to 1000 | Cn1cnnc1C1CCN(c2c(C#N)cccc2-c2cnc3nccn3c2)CC1 [Example 93, 3-(imidazo[1,2-a]pyrimidin-6-yl)-2-(4-(4-methyl-4H-1,2,4-triazol-3-yl)piperidin-1-yl)benzonitrile] |
| < 100 | < 100 | < 100 | Cn1cnnc1C1CCN(c2c(-c3ccc(F)nc3)ccc(-c3ccn(C4CC4)n3)c2C#N)CC1 [Example 98, 6-(1-cyclopropyl-1H-pyrazol-3-yl)-3-(6-fluoropyridin-3-yl)-2-(4-(4-methyl-4H-1,2,4-triazol-3-yl)piperidin-1-yl)benzonitrile] |
| < 100 | < 100 | < 100 | CN(C)CCn1cc(-c2ccc(-c3ccc(F)nc3)c(N3CCC(c4nncn4C)CC3)c2C#N)cn1 [Example 60, 6-(1-(2-(dimethylamino)ethyl)-1H-pyrazol-4-yl)-3-(6-fluoropyridin-3-yl)-2-(4-(4-methyl-4H-1,2,4-triazol-3-yl)piperidin-1-yl)benzonitrile] |
